Assay results from BigSolDB 2.1.

O=C(Nc1ccccc1)c1ccccc1O
solubility (mole fraction)
Details	283.15 K	288.15 K	293.15 K	298.15 K	303.15 K	308.15 K	313.15 K	318.15 K	323.15 K
in acetonitrile	0.0129	0.0153	0.0181	0.0217	0.0258	0.0307	0.0359	0.0423	0.0485
in ethanol	0.0185	0.0207	0.0235	0.0273	0.0322	0.0366	0.0425	0.0487	0.0572
in ethyl acetate	0.0344	0.039	0.0432	0.0486	0.0554	0.0635	0.0709	0.0808	0.0892
in ethyl formate	0.0195	0.0219	0.0248	0.0293	0.0334	0.041	0.0488	0.0585	0.0681
in isopropanol	0.0169	0.0199	0.0225	0.0265	0.0315	0.036	0.041	0.0473	0.053
in isopropyl acetate	0.0281	0.031	0.0352	0.0389	0.0439	0.0502	0.0567	0.0638	0.0709
in methyl acetate	0.0366	0.0408	0.0443	0.05	0.0568	0.0658	0.0766	0.0879	0.101
in n-butanol	0.013	0.0155	0.0178	0.021	0.0247	0.0292	0.0346	0.0403	0.0467
in n-butyl acetate	0.028	0.0311	0.0349	0.0388	0.0435	0.049	0.0545	0.061	0.0686
in n-pentanol	0.014	0.0157	0.0181	0.0206	0.0238	0.0281	0.0338	0.0396	0.0459
in n-propanol	0.0134	0.0168	0.0199	0.0229	0.0266	0.0314	0.0363	0.0418	0.0479
in n-propyl acetate	0.0303	0.0347	0.0378	0.0435	0.0483	0.0542	0.0616	0.0703	0.0796
